Reference: PubChem BioAssay (NCI)
Values joined by “and” are separate entries in the source; they are usually repeats but may differ in a detail not shown here. Identical values can stand only once.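 Protocol summary: plate cells (96-well), add compound at 5 concentrations, incubate 48 h, interpolate endpoints linearly. Abbreviation: GI50, concentration required for 50% inhibition of growth. At the TGI there is no net growth.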 Where a SMILES comes first, the peptide text is derived from it. [ ]: non-standard residue; d: D form. Orn = NCCC[CH](N)C(=O)O

What was measured:
Test in all cases: growth of human tumour cells (NCI), 48 h
OVCAR-8 ovarian = tested on: OVCAR-8 ovarian
OVCAR-4 ovarian = tested on: OVCAR-4 ovarian
KM12 colon = tested on: KM12 colon
SF-268 CNS = tested on: SF-268 CNS
SNB-75 CNS = tested on: SNB-75 CNS
UACC-62 melanoma = tested on: UACC-62 melanoma
SNB-19 CNS = tested on: SNB-19 CNS
SF-295 CNS = tested on: SF-295 CNS
MDA-MB-435 = tested on: MDA-MB-435
SK-MEL-28 melanoma = tested on: SK-MEL-28 melanoma

SMILES	GI50 (OVCAR-8 ovarian)	TGI (OVCAR-8 ovarian)	GI50 (OVCAR-4 ovarian) [µM]	TGI (OVCAR-4 ovarian) [µM]	GI50 (KM12 colon) [µM]	TGI (KM12 colon)	GI50 (SF-268 CNS)	TGI (SF-268 CNS)	GI50 (SNB-75 CNS) [µM]	TGI (SNB-75 CNS)	GI50 (UACC-62 melanoma)	TGI (UACC-62 melanoma)	GI50 (SNB-19 CNS) [µM]	TGI (SNB-19 CNS)	GI50 (SF-295 CNS)	TGI (SF-295 CNS)	GI50 (MDA-MB-435) [µM]	TGI (MDA-MB-435)	GI50 (SK-MEL-28 melanoma) [µM]	TGI (SK-MEL-28 melanoma)
O=C(Nc1cc(Cl)cc(Cl)c1)c1ccc(NC2=C(Cl)C(=O)N(Cc3ccccc3)C2=O)cc1	2.62 µM	6.32 µM	18.6	> 100	6.43	26.2 µM	2.55 µM	7.46 µM	35.4	74.5 µM	4.13 µM	16.7 µM	41.7	> 100 µM	2.49 µM	13.6 µM	11.7	25.2 µM	41.9	> 100 µM
Cn1cc(C2=C(c3cccc(NCC(O)CO)c3)C(=O)NC2=O)c2cc(Cl)ccc21 (centres undefined)	5.08 µM	17.4 µM	1.87	11.6	2.45	9.5 µM	4.46 µM	10.5 µM	3.45	9.55 µM	4.66 µM	11.6 µM	7.28	19.6 µM	0.237 µM	8.94 µM	5.9	> 20.6 µM	5.68	16.1 µM
O=C(O)c1cn(C2CC2)c2cc(N3CCN(C(=O)Nc4nc(-c5ccc(Cl)cc5)cs4)CC3)c(F)cc2c1=O	1.86 µM	50.9 µM	3.61	> 100	2.15	> 100 µM	0.828 µM	> 100 µM	2.25	20.5 µM	2.4 µM	37.9 µM	2.74	> 100 µM	3.03 µM	23.7 µM	2.75	> 100 µM	0.701	> 100 µM
CC(C)CC1NC(=O)C(CCCN)NC(=O)C(C(C)C)NC(=O)C2CCCN2C(=O)C(Cc2ccccc2)NC(=O)C(CC(C)C)NC(=O)C(CCCN)NC(=O)C(C(C)C)NC(=O)C2CCCN2C(=O)C(Cc2ccccc2)NC1=O (centres undefined) (cyclo(FPV[Orn]LFPV[Orn]L); configuration not given here)	0.0113 µM and 0.0252 µM	0.591 µM and 1.32 µM	0.0133	–	0.00513	0.363 µM and 1.04 µM	0.0168 µM and 0.0594 µM	0.565 µM and 1.66 µM	0.0103	0.149 µM and 0.0637 µM	< 0.0123 µM and 0.0315 µM	0.443 µM and 1.26 µM	< 0.00325	0.486 µM and 1.38 µM	0.00644 µM and 0.0206 µM	0.0186 µM and 0.0735 µM	0.00425	0.371 µM and 1.21 µM	0.0395	0.962 µM and 1.63 µM
COc1ccc(-c2oncc2-c2cc(OC)c3c(c2)OCO3)cc1	4.86 µM	> 100 µM	10	> 100	2.66	> 82.2 µM	7.38 µM	> 100 µM	1.43	5.12 µM	2.85 µM	57.7 µM	5.25	> 100 µM	2.13 µM	10.3 µM	0.275	1.27 µM	3.21	> 100 µM
COc1ccc(C2SC(C)C(=O)N2NC(=O)C(O)c2ccccc2)cc1 (centres undefined)	> 100 µM	> 100 µM	> 100	> 100	> 100	> 100 µM	> 100 µM	> 100 µM	60.3	> 100 µM	> 100 µM	> 100 µM	> 100	> 100 µM	> 100 µM	> 100 µM	> 100	> 100 µM	> 100	> 100 µM
Nc1nn(C(=O)Nc2ccc(Cc3ccccc3)cc2)c2ccccc12	21.9 µM	63.9 µM	10.7	40.4	2.94	> 100 µM	4.66 µM	32.3 µM	17	47.4 µM	0.353 µM	> 100 µM	22.8	> 100 µM	0.53 µM	> 100 µM	2.82	> 100 µM	11.5	> 100 µM
COc1cccc(-c2cc(NCc3ccc4c(c3)OCO4)nc(N)n2)c1	0.123 µM	5.2 µM	0.225	27.5	0.072	8.18 µM	3.29 µM	22.9 µM	0.0368	14.4 µM	0.0546 µM	18.1 µM	0.143	45.4 µM	0.0597 µM	14.4 µM	0.0175	0.0521 µM	0.0724	19.7 µM
CCN(CC)CCCC(C)Nc1ccnc2cc(Cl)c(SCc3ccccc3)cc12 (centres undefined)	1.73 µM	3.44 µM	1.53	4.05	1.43	3.96 µM	1.59 µM	3.65 µM	1.66	3.32 µM	0.214 µM	0.585 µM	1.78	4.41 µM	1.32 µM	3.02 µM	0.275	0.838 µM	1.15	2.41 µM
Cc1cccc2c(=O)c3c(sc12)c(NCCN)nc1ccccc13	0.885 µM	1.98 µM	0.935	2.16	0.913	1.77 µM	1.18 µM	3.88 µM	0.448	2.79 µM	0.811 µM	1.65 µM	0.948	2.56 µM	0.886 µM	1.7 µM	0.911	1.67 µM	0.936	1.7 µM
OCCCNC(=S)Nc1ccc(-c2nc3ccccc3s2)cc1	33.7 µM	91.9 µM	28.1	> 100	17.8	46.9 µM	22.5 µM	> 100 µM	18.8	78.8 µM	18.6 µM	41 µM	32.2	> 100 µM	14.8 µM	45 µM	17.9	50.8 µM	24.9	70.3 µM
O=C(Nc1cccc2ccccc12)c1cc2ccccc2cc1O	2.52 µM	8.25 µM	2.69	35.9	2.73	8.01 µM	3.47 µM	39.1 µM	1.6	6.11 µM	1.49 µM	10.7 µM	3.17	> 100 µM	1.83 µM	4.32 µM	1.87	5.05 µM	3.58	22.4 µM
